{
  "source": "patent US20040121912A1",
  "about": "“Method for controlling root growth using paraquat” (priority 2002, published 2004)",
  "test_system": "black willow (Salix nigra) roots",
  "experiment": "Foam application to exposed roots of greenhouse-grown black willow cuttings; roots evaluated 25 days after treatment",
  "settings": "for Dry Weight of Roots, Dead Roots / Dry Weight of Roots, Live Roots: 20 min contact, twenty-five days following treatment, average of 24 willow cuttings; for Effect on treated roots (visual inspection, living roots / root growth): foam application, twenty-five days following treatment (FIG. 3, FIG. 4)",
  "protocol": "Individual branch cuttings of black willow (Salix nigra) were collected and grown in containers according to methods described in Groninger and Bohanek 2000, J. of Plant Growth Regulation 19:453-456. The cuttings were rooted in 262 ml tubes containing a 1:1 mixture of peat moss and white washed play sand. Tubes were perforated with a 2 cm^2 hole in the bottom and four 1.4 cm^2 holes on the side, 2 cm from the bottom of the tube. Cuttings were grown under greenhouse conditions in racks containing 12 tubes each with one cutting per tube. To facilitate root growth outside of the tube, the racks were placed in aluminum pans and positioned so that the base of each tube was suspended in dilute nutrient solution. Water was added as needed and a 20-20-20-NPK fertilizer was provided at a rate of 0.04 g/cutting per week into the pan. Root growth was further facilitated by maintaining the root zone in darkness by covering gaps between the edge of the rack and the pan with aluminum foil. When cuttings had been growing for approximately four months, intermingling exposed roots from adjacent cuttings were separated from one another and fine roots were allowed to regrow. Treatment were initiated when shoots averaged 0.8 meters in height with healthy foliage. At the time of treatment, each cutting produced profuse growth of roots 0.3 cm in diameter or less.\nRoots of the cuttings were exposed to paraquat, diquat, Rootex, a rooting hormone, and a control. Paraquat (Gramoxone Max®, Syngenta, containing 43.8% paraquat) was applied to roots cuttings at two rates, 2.0 and 4.0 ml/L. Diquat (Reward®, Syngenta, containing 37.3% diquat) was applied at 4.0 ml/L. Each treatment of the four treatments were applied in 1.0 L water solution with a 2% alkyl polyglycoside-based foaming agent, AU-340 (Adjuvants Unlimited, Tulsa, Okla.) using a foam generator to simulate a standard application of chemicals in controlling tree roots in sewer lines. Roots were placed in contact with foam solution for 20 minutes. […] Upon removal of foam solution, cuttings and their exposed roots were returned to pretreatment nutrient conditions with residual foam permitted to maintain contact with exposed roots.\nEvaluation of roots was conducted twenty-five days following treatment. Roots were visually inspected, harvested, separated into living and dead groups, dried and weighed for dry mass determination.",
  "note": "“Also recorded” adds a separate entry of the source.",
  "data": [
    {"compound": "c1cc[n+]2c(c1)-c1cccc[n+]1CC2", "note": "[Diquat]", "values": [
      {"measurement": "Dry Weight of Roots, Dead Roots", "setting": "4.0 ml/L of stock in foam", "result": 0.9, "unit": "g/willow cutting"},
      {"measurement": "Dry Weight of Roots, Live Roots", "setting": "4.0 ml/L of stock in foam", "result": 0, "unit": "g/willow cutting"},
      {"measurement": "Effect on treated roots (visual inspection, living roots / root growth)", "result": "No living roots"}
    ]},
    {"compound": "C[n+]1ccc(-c2cc[n+](C)cc2)cc1", "note": "[Paraquat, 1,1′-dimethyl-4,4′-bipyridium ion]", "values": [
      {"measurement": "Dry Weight of Roots, Dead Roots", "setting": "2.0 ml/L of stock in foam", "result": 0.7, "unit": "g/willow cutting"},
      {"measurement": "Dry Weight of Roots, Live Roots", "setting": "2.0 ml/L of stock in foam", "result": 0, "unit": "g/willow cutting"},
      {"measurement": "Dry Weight of Roots, Dead Roots", "setting": "4.0 ml/L of stock in foam", "result": 2.2, "unit": "g/willow cutting"},
      {"measurement": "Dry Weight of Roots, Live Roots", "setting": "4.0 ml/L of stock in foam", "result": 0, "unit": "g/willow cutting"},
      {"measurement": "Effect on treated roots (visual inspection, living roots / root growth)", "result": "destruction of the test roots; also recorded: No living roots"},
      {"measurement": "Damage to the upper portion of the trees", "setting": "green house testing, applied as a dense foam to tree roots", "result": "without causing damage"}
    ]}
  ]
}
